These results are taken from patent US7538234B2, “Preparation of Optically active 2-(1-hydroxyethyl)-5-hydroxynaphtho[2,3-b]furan-4, 9-diones having anticancer activities” (Taheebo Japan Co., Ltd., priority 2007, dated 2009).

One series has as its system Raji cell. Description: Survival of Raji cells in the EBV-EA activation test. It is filed as cell-based, human. As to conditions: 2 days. Here is the method: (§1) Additionally, cancer-preventing effects about Epstein-Barr virus early antigen (EBV-EA) using Raji cell, which was available from George Klein, Karolinska Institute, Sweden, were studied (cf. Table 2). • (1) To a reaction culture (1 ml) in a 15 ml plastic tube were added 1×10^6 of lymphoma Raji cells of human origin, and the mixture was incubated for 2 days at 37° C. under 5% CO2 gas. The reaction culture was a solution wherein butyric acid was added to RPMI-1640 (Roswell Park Memorial Institute) medium containing 8% FBS in a concentration of 4 mM. In case of positive controls, to the reaction culture was added 12-O-tetradecanoylphorbol-13-acetate (TPA) (20 ng, 32 pmol). • (2) Analysis was carried out by adding test compounds to the reaction culture in the above (1) with TPA in 1000, 500, 100 and 10 times higher concentration by mole (32, 16, 3.2 and 0.32 nmol) to TPA and incubating in a similar manner to the above. • (3) 2 days after incubation, a reaction tube was centrifuged at 1000 rpm for 10 minutes, and supernatants were discarded to collect reaction cells at the bottom of the tube, and thereto was added a phosphate buffered saline (0.1 ml) and the mixture was mixed well. To a glass slide for pathological pieces was added the mixture (5 μl), and then the mixture was air-dried to dryness. • (4) An antigen-antibody reaction was carried out at 37° C. in wet process by adding a diluted serum (1 μl) of patient with epipharynx carcinoma to the dried mixture. 45 minutes after the reaction, the resultant was washed with neutral phosphate buffer three times and then air-dried in a similar manner to the above. Then, thereto was added human blood gamma globulin antibody (1 μl), wherein a fluorescent substance was bound, to carry out an antigen-antibody reaction. 45 minutes after the reaction, the mixture was washed with neutral phosphate buffer to give a test sample. • (5) The test sample on a glass slide was observed under fluorescent light microscope. Both of dead and live cells were calculated, and the survival ratio in percentage is shown as a cancer-preventing activity, and the data of each sample were compared (cf. Table 2).

The test system of series [1] is Epstein-Barr virus early antigen (EBV-EA). Description: Inhibitory effect of TPA-induced EBV-EA activation in Raji cells. It counts as cell-based, human. Particulars: for EBV-EA-positive cell: Raji cells, 2 days. Here is the method: as §1
The test system of series [2] is human lung cancer cell A-549. Kind of series: Cytotoxicity experiment (trypan blue dead cell count, 3 days incubation). It counts as cell-based. Particulars: for EC50: concentration of 50% of dead cells, 3 days incubation. As for the experimental part: (§2) Cytotoxicity experiments were carried out by using human prostate cancer cell PC-3 (Invest. Urology 17: 16, (1979)), human lung cancer cell A-549 (J. Nat. Cancer Inst. 51: 1417, (1973)) and human breast cancer cell MCF-7 (cr. Table 1). Cells used in the experiments were obtained from Laboratory Products Dept. of Dainippon Pharmaceuticals Inc. (now Dainippon Sumitomo Pharma Co., Ltd.). • (1) In 3 cm plastic petri dish, 5×10^6 of the above human origin cancer cell was incubated at 37° C. under 5% CO2 gas on an incubation medium wherein 10% fetal bovine serum (FBS) was added to a basal medium Dulbecco's modified eagle medium (DMEM). • (2) It was confirmed 1 day after the incubation that the cells were adhered to the petri dish. All incubation media were discarded, and to the cells were added fresh media (1 ml) to give reaction media. Thereto was added a solution of a test compound in DMSO (2 μl), and the mixture was incubated for 3 days under the same conditions as in the above (1). • (3) 3 days after the incubation, all cells were collected with a scrapper, and the mixture was softly stirred. Then, an aliquot (0.1 ml) was taken into a tube, and thereto was added 0.25% trypan blue solution (0.1 ml), and the mixture was stirred and then allowed to stand for 10 minutes. Both of dead and live cells suspended in the mixture were observed using a white cell counter under light microscope to calculate cytotoxicity effects to the cancer cells. • (4) The number of the observed dead cells was calculated on the basis of the total number of cells observed as 100% using a white cell counter. Each bioactivity evaluation of each compound was represented by EC50 value (μM), which refers to a concentration of 50% of dead cells (cf. Table 1).

Series [3] relates to human prostate cancer cell PC-3. The series is described as above. It counts as cell-based. As to conditions: for EC50: concentration of 50% of dead cells, 3 days incubation. As for the experimental part: as §2
Series [4] has as its system human breast cancer cell MCF-7. The series is described as above. It is filed as cell-based. As to conditions: for EC50: concentration of 50% of dead cells, 3 days incubation. As for the experimental part:
as §2

Setting [5] is: compound concentration 500 (molar ratio/32 pmol TPA).
[6] abbreviates: compound concentration 1000 (molar ratio/32 pmol TPA).
Setting [7] is: compound concentration 10 (molar ratio/32 pmol TPA).
[8] abbreviates: compound concentration 100 (molar ratio/32 pmol TPA).

The structures appear in SMILES notation.

Regarding `C[C@H](O)c1cc2c(o1)C(=O)c1cccc(O)c1C2=O` [(S)-NQ801, (S)-2-(1-hydroxyethyl)-5-hydroxynaphtho[2,3-b]-furan-4,9-dione], the figures for the “% survival (value in parentheses)” value in the series on Raji cell (setting [5]) and in the series on Raji cell (setting [6]) were “(60) %” and 60%, respectively. For the same compound, the EBV-EA-positive cell in series [1] (setting [7]) worked out at 50%; in series [1] (setting [8]), 16.9%; in series [1] (setting [5]), 4.4%; in series [1] (setting [6]), 0%. Also, the “inhibition of EBV-EA expression” value in series [1] (statement in words) is listed as “inhibits EBV-EA expression”. Further, the “cytotoxicity compared with mitomycin” value is on record as “same cytotoxicity as mitomycin” in series [2] (A-549, statement in words); “same cytotoxicity as mitomycin” in series [3] (PC-3, statement in words); “same cytotoxicity as mitomycin” in series [4] (MCF-7, statement in words). Further, the EC50 stood at 960 nM in series [2] (Homo sapiens, A549, 72 h); 140 nM in series [3] (Homo sapiens, 72 h); 3500 nM in series [4] (Homo sapiens, MCF7, 72 h).
As for `C[C@@H](O)c1cc2c(o1)C(=O)c1cccc(O)c1C2=O` [(R)-NQ801], the “% survival (value in parentheses)” value with Raji cell (setting [6]) is on record as 70%. Besides, the EBV-EA-positive cell was found to be 59.4% in series [1] (setting [7]), 24.7% in series [1] (setting [8]), 9.7% in series [1] (setting [5]) and 0% in series [1] (setting [6]). Besides, the results for the concentration giving a half-maximal response (EC50) in series [2], in series [3] and in series [4] were 3000 nM, 930 nM and 9300 nM, respectively.
With `CC1(C)CCC2=C(O1)c1ccccc1C(=O)C2=O` [β-Lapachone, 3,4-dihydro-2,2-dimethyl-2H-naphtho(1,2-b)pyrane-5,6-dione], the “% survival (value in parentheses)” value in the series with Raji cell (setting [6]) was 50%. Besides, the EBV-EA-positive cell was determined as 73.1% in series [1] (setting [7]), 50.4% in series [1] (setting [8]), 21.7% in series [1] (setting [5]) and 4.7% in series [1] (setting [6]).
As for `CO[C@@]12[C@H](COC(N)=O)C3=C(C(=O)C(C)=C(N)C3=O)N1C[C@@H]1N[C@@H]12` [Mitomycin], the half-maximal effective concentration (EC50) turned out to be 430 nM in series [2] (Homo sapiens, A549, 72 h); 140 nM in series [3] (Homo sapiens, 72 h); 960 nM in series [4] (Homo sapiens, MCF7, 72 h).
For `CC(O)c1cc2c(o1)C(=O)c1cccc(O)c1C2=O` (racemic) [Racemate NQ801, 2-(1-hydroxyethyl)-5-hydroxynaphtho[2,3-b]furan-4,9-dione], the “% survival (value in parentheses)” value with Raji cell (setting [5]) is “(70) %”; in the series on Raji cell (setting [6]) it was 60%. For the same compound, the EBV-EA-positive cell in series [1] (setting [7]) is reported as 52.9%; in series [1] (setting [8]), 20.7%; in series [1] (setting [5]), 6.2%; in series [1] (setting [6]) it was 0%. The 50% effective concentration (EC50) in series [2] (Homo sapiens, A549, 72 h) was determined as 3240 nM; in series [3] (Homo sapiens, 72 h) it was 560 nM; in series [4] (Homo sapiens, MCF7, 72 h), 8500 nM.

A word on the EC50: it is the concentration at which the effect is half-maximal. Read a low EC50 as an effect from little substance.
